# Source: US20250213700A1, “COMPOUNDS, COMPOSITIONS, AND METHODS FOR CELL-SPECIFIC PHARMACOLOGY” (Duke University, priority 2022, published 2025)
# Tests used:
# endogenous AMPARs = assay: all-optical cultured-neuron assay of AMPAR-dependent synaptic transmission; assay type: cell-based, rat; details: DW=Rx50/HTL50
# Protocol: Cultured neuronal assays: Preparation of hippocampal cultures: Mixed glial and neuronal cultures were prepared from the hippocampus of postnatal day 0 to 1 Sprague-Dawley rat pups. Separate pools of dissociated cells were transfected via electroporation (LONZA, V4SP-3096) with plasmid constructs, and depending on assay directives, either plated individually or mixed with a different pool of electroporated cells after a 10 min recovery period. Cells were cultured on coverslips (Deckglaser) pre-treated with high molecular weight poly-D-lysine (Sigma, P7405; 0.05 mg/mL) in 24-well plates and maintained in NbActiv4 (BrainBits, Nb4-500) at 37 C, 5% CO2. Media was changed by half at DIV3 or 4 and then weekly thereafter; experiments were performed between DIV16 to DIV18.
# [1] = system: D1-Cre mice with +HTP or ddHTP in left dorsal striatum; assay: open-field turning (locomotor) assay, unilateral delivery to dSPNs of dorsal striatum; assay type: in vivo, mouse; details: for open-field turning, +HTP mice / open-field turning, ddHTP mice: 10:1 mixture with Alexa488.1DART.2 infused into left dorsal striatum
# Protocol: Mice: For behavioral experiments, mice strains included Drd1A-Cre (GENSAT EY262). For slice experiments, Drd1A-Cre were used. Mice were singly housed post-surgery, in a 12-hour reverse light cycle, with food and water provided ad libitum. Recombinant adeno-associated viral (rAAV) vectors.
# Behavioral assays: Assays were performed at least 3 weeks after viral injection to allow for recombinant protein expression. Mice were acclimated to head-fixation for 3 consecutive days prior to behavioral experiments. Reagents were infused into the brain via the cranial cannula. Immediately following infusion, mice were placed into open-field chambers (27 cm×27 cm) in the dark, and behavior was recorded using infrared video.
# These advances were combined in a mouse locomotor assay. AAV-DIO-^+HTPGPI or AAV-DIO-ddHTPGPI were expressed in the left dorsal striatum of D1-Cre mice, and implanted a unilateral cannula. Three weeks later, a baseline open-field behavior (saline infusion) was obtained; followed one week later by infusion of a 10:1 mixture of YM90K.1DART.2/Alexa488.1DART.2 (FIG. 3A). Mice were perfused for histology 24 hrs later, and quantitative measurement of the integrated Alexa capture over the dorsal striatum was performed. The magnitude of open-field turning vs dye capture (FIG. 3C) was then plotted A control was also performed as above using DART.1 and non-DART fluorescent dye (fluorogold) (FIG. 3B and FIG. 3D). Three points merit emphasis. […] Second, the data yielded a tight correlation between behavioral effects and histology; in particular the four animals with the weakest behavioral impact corresponded to those with little dye capture, providing an unbiased parameter with which to exclude these animals due to technical failure. Such a correlation was not seen with the original technology, despite efforts to estimate cannula patency with a non-DART fluorescent tracer. Third, in these behaving mice, YM90K.1DART.2 was substantially more efficacious than its predecessor, driving a 3-fold larger impact in a locomotor assay following unilateral delivery to dSPNs of the dorsal striatum (FIG. 3E and FIG. 3F). Experiments in acute striatal brain slice confirmed the performance boost afforded by DART.2. Low-dose, YM90K.1DART.2 produced rapid AMPAR antagonism on +HTP neurons, achieving half-block after only 5 min of a 0.3 µM dose. This represents a ˜10-fold acceleration in comparison to its predecessor, which required 15 min of a 1 µM dose to achieve a similar block. Neither reagent produced any measurable impact on −HTP or ddHTP neurons at these doses. However, only YM90K.1DART.2 offered kinetics fast enough for routine slice physiology experiments.
compound,measurement,setting,value
COc1cc(CCCCl)ccc1CCOCCNC(=O)c1ccc(CNC(=O)CCOCCOCCOCCOCCOCCOCCOCCOCCOCCOCCOCCOCCOCCOCCOCCOCCOCCOCCOCCOCCOCCOCCOCCOCCOCCOCCOCCOCCOCCOCCOCCOCCOCCOCCOCCOCCn2cc(COCCOCCOCCOCCOCCOCCNC(=O)CCCn3c(=O)c(=O)[nH]c4cc([N+](=O)[O-])c(-n5ccnc5)cc43)nn2)cc1 [YM90K.1DART.2],widening of Dosing Window vs DART.1 reagent,endogenous AMPARs,10 fold
same,DW (t=15 m),"endogenous AMPARs; ddHTP vs +HTP cells, 15 min",300
same,"open-field turning, +HTP mice",[1],a turning bias in +HTP mice was seen
same,"open-field turning, ddHTP mice",[1],no turning bias
same,"open-field turning, +HTP mice",[1]; listed as YM90K.1^DART.2,turned in proportion to dye capture
same,"open-field turning, ddHTP mice",[1]; listed as YM90K.1^DART.2,little turning
same,impact in locomotor assay / behavioral potency in comparison to predecessor,[1]; unilateral delivery to dSPNs of the dorsal striatum,3 fold
